Reference: US20200032271A1, “COMBINATION THERAPY WITH LIPOSOMAL ANTISENSE OLIGONUCLEOTIDES” (Bio-Path Holdings, Inc., priority 2016, published 2020)
Several values for one entry are separate records, joined by “and”; a condition that tells them apart may be missing. Identical values can stand only once. [PEt] = P-ethoxy (ethyl phosphotriester) internucleoside linkage

What was measured:
[1] = in vivo
From the text: Each participant who receives study drug will be closely monitored for AEs. An AE is any untoward medical occurrence associated with the use of a drug in humans, whether or not considered drug related. Adverse events include any signs, symptoms, illnesses, or diagnoses that appear or worsen during the course of the study. An AE may be an intercurrent illness, an injury, or any concomitant impairment of the participant's health. All AEs occurring at any time from the time of consent through the end of treatment visit will be reported regardless of the etiology of the event. The NCI's CTCAE v4.03 will be used for grading AEs.
The causal relationship to BP1001 IP or Das for all AEs will be assessed as follows: (1) definitely related—AEs clearly attributable to study regimen administration; (2) probably related—AEs for which there is a reasonable possibility of causal association to study regimen; (3) possibly related—AEs for which there is confounding by comorbidities, medications or other considerations but for which it is not unreasonable that the AE may have been caused by study regimen; or (4) not related—AEs that are considered clearly not causally related to study regimen, or for which there is a clear alternative explanation

[2] = test system: BV173 cells; test: Cell cycle analysis (7-AAD flow cytometry); type: cell-based, human; conditions: BP1001 1 day before dasatinib, harvested three days later (FIGS. 8A-D)
Experimental: Cells were then fixed and permeabilized for 1 h at 4° C. with 1×Fixation/Permeabilization buffer (Ebioscience, San Diego, Calif., USA). After permeabilization, cells were washed and incubated with 7-aminoactinomycin D (7-AAD, Biolegend, San Diego, Calif., USA) in the dark at 4° C. for about 30 min. Flow cytometric data acquisition was acquired using BD FACSDiva™ software (BD Biosciences, San Jose, Calif., USA). The flow cytometer was set to collect 20,000 events. Relative percentages in the different cell cycle phases (sub-G1, G1, S, G2/M) were reported.
[…] Three days later, cells were harvested and processed for flow cytometry.

[3] = test system: Grb2; test: Flow cytometry of Grb2 levels in circulating leukemia cells of patients; type: in vivo, human; conditions: for Grb2 decrease (%) (Day 15) / Grb2 decrease (%) (Day 22 or end-of-treatment): individual subjects
From the text: (§1) Flow cytometry was used to determine the levels of Grb2 and pErk proteins in the circulating leukemia cells of patients who were on BP1001 single agent therapy, and were reported as median fluorescent intensity (MFI). MFI of Grb2 and pErk during treatment were compared to those at baseline.
Peripheral blood was collected from patients in cohorts 3, 4, 5, and 6, before being dosed on Cycle 1 days 1, 8, 15 and 22, and Cycle 2 day 1. White blood cells were isolated from peripheral blood using BD Vacutainer CPT cell preparation tubes with sodium heparin (BD Dickinson), fixed and stored in −80° C. freezer. Flow cytometry was utilized to determine Grb2 and phosphorylated Erk1,2 (pErk) levels in CD33-expressing cells using a validated method (Flow Contract Site Laboratory, Bothell, Wash., USA).
as §1, with “utilized” for “used”, “baseline (Table 7).” for “baseline.”

[4] = Experimental: The potential toxicity of a twice weekly intravenously (slow bolus) administered BP1001 in Dutch Belted rabbits was conducted. BP1001 was administered over a 28-day period followed by a 2-week recovery phase.
Doses were administered on Study Days 1, 3, 8, 10, 15, 17, 22, and 24. The first day of dosing on the study was designated as Study Day 1. The doses were given at approximately the same time each day. Individual dose volumes were calculated based on the most recently recorded body weight for each animal. Study Day 1 dose levels were calculated on a pretest body weight.

[5] = Tissue distribution study in mice (32P-labeled BP1001); type: in vivo; conditions: mouse, 20 mg/kg i.v.
Experimental: Tissue distribution studies of BP1001 were conducted in mice following i.v. administration. Twenty mice (5/group) were divided into three test article groups and one control group. Test article groups were injected i.v. via the tail vein with radio-labeled (^32P) BP1001 at a dose of 20 mg of oligonucleotide per kg of body weight. Injected mice were euthanized by CO2 inhalation at 4, 24, and 48 hours following injection for organ harvest. Control animals were non-injected animals. Spleen, liver, kidney, heart, stomach, lung, and bone marrow tissue were collected from all animals, and tissue samples (50-100 mg) from each organ were weighed and processed. ^32P radioactivity was counted in a scintillation counter. Results were expressed as mean μg BP1001/g tissue. As expected, no radioactivity was detected in control animals. […] BP1001 accumulated in all tissues examined, with the highest accumulation in spleen, liver, and kidney tissue. At 4 h following injection, mean BP1001 tissue concentrations per g of tissue were: 64 μg (spleen), 50 μg (liver), 34 μg (kidney), and ranged from 12-34 μg in other tissues. […] A minimal amount of BP1001 (˜0.4 μg in two femurs) was detected in the bone marrow, where the concentration remained relatively constant for […].

[6] = test system: imatinib-sensitive and imatinib-resistant CML cell lines; test: Growth inhibition and ERK1,2/Akt phosphorylation in CML cell lines; type: cell-based; conditions: preclinical studies
From the text: (§2) BP1001 is a neutral liposome incorporated with the nuclease-resistant, hydrophobic P-ethoxy antisense oligos targeted to Grb2 mRNA. In preclinical studies, BP1001 was effective in inducing growth inhibition and decreasing ERK1,2 and Akt phosphorylation in imatinib-sensitive and imatinib-resistant CML cell lines.

[7] = test system: HL60 (Ph-negative, Bcr-Abl negative); test: Inhibition of proliferation of leukemic cell lines by BP1001; type: cell-based, human; conditions: [BP1001] 0-12 μM, 5 days
From the text: as §2

[8] = test system: K562; test: as above; type: cell-based, human; conditions: 4 days
From the text: as §2

[9] = test system: ALL-1; test: as above; type: cell-based, human; conditions: 5 days
From the text: as §2

[10] = test system: BV173; test: as above; type: cell-based, human; conditions: 5 days
From the text: as §2

[11] = test system: 32Dp210 Bcr-Abl positive leukemia cells; test: Survival of mice injected with 32Dp210 Bcr-Abl positive leukemia cells, second study; type: in vivo
Experimental: In a second study in mice injected with 32Dp210 Bcr-Abl positive leukemia cells, treatment groups received BP1001 at 5, 10, or 15 mg/kg/dose administered intravenously beginning one day after injection of tumor cells, twice weekly for up to 7 weeks. Control groups received DOPC liposomes containing an oligonucleotide of random sequence (15 mg/kg/dose) on the same schedule. Mice were observed daily for moribundity/morbidity. Surviving mice in the control groups were euthanized on Day 41, and in the treatment groups on Day 48.

[12] = Multiple-dose toxicity study in mice; conditions: mouse
[13] = test system: acute myeloid leukemia (AML) cells; test: Cytarabine cytotoxicity after BP1001 pretreatment; type: cell-based; conditions: preclinical studies
[14] = 15 mg/kg/dose i.v. twice weekly
[15] = 15 and 25 mg oligo/kg i.v. daily for five days

BP1001: liposome-incorporated P-ethoxy antisense oligodeoxynucleotide (5′-ATATTTGGCGATGGCTTC-3′, SEQ ID NO: 1) specific to grb2 mRNA, in neutral DOPC liposomes (DNA, all [PEt], methylation of C not given here; incorporated in neutral DOPC liposomes)
Infections and infestations ≥Grade 3, total events [1]: (9/9) | Infections and infestations ≥Grade 3, total patients [1]: (9/9) | percentage of cells in sub-G1 phase [2]: 3.1% | Grb2 decrease (%) (Day 15) ([3]; cohort 3, 20 mg/m^2): 0% (2×) and 56% | Grb2 decrease (%) (Day 22 or end-of-treatment) ([3]; cohort 3, 20 mg/m^2): 28% and 47% and 57% | Grb2 decrease (%) (Day 15) ([3]; cohort 4, 40 mg/m^2): 63% and 47% | Grb2 decrease (%) (Day 22 or end-of-treatment) ([3]; cohort 4, 40 mg/m^2): 54% and 0% and 34% | Grb2 decrease (%) (Day 15) ([3]; cohort 5, 60 mg/m^2): 0% and 57% and 54% | Grb2 decrease (%) (Day 22 or end-of-treatment) ([3]; cohort 5, 60 mg/m^2): 30% and 65% and 43% | Grb2 decrease (%) (Day 15) ([3]; cohort 6, 90 mg/m^2): 0% and 85% and 63% | Grb2 decrease (%) (Day 22 or end-of-treatment) ([3]; cohort 6, 90 mg/m^2): 0% and 91% and 40% | average decrease in Grb2 levels ([3]; last measured sample): 49% | samples with ≥25% decrease of Grb2 levels ([3]; last measured sample (end of treatment or cycle 1 day 22), MFI vs baseline): 10 out of 12 | effects on coagulation parameters ([4]; rabbit): no observed effects | toxicity (clinical observations, body weights, bone marrow cytology, clinical pathology, organ weights, microscopic findings) ([4]; rabbit, 3.75, 5.00 or 7.50 mg/kg i.v. slow bolus twice weekly, 28 days): no apparent toxicity | tissue half-life in lungs [5]: ~48 h | tissue half-life in spleen, liver, kidney, heart and stomach [5]: approximately 24 h | mean tissue concentration, kidney ([5]; 4 h): 34 μg/g tissue | mean tissue concentration, liver ([5]; 4 h): 50 μg/g tissue | mean tissue concentration, other tissues ([5]; 4 h): 12-34 μg/g tissue | mean tissue concentration, spleen ([5]; 4 h): 64 μg/g tissue | amount detected in bone marrow (two femurs) ([5]; relatively constant for 72 h): ~0.4 µg | growth inhibition and decrease of ERK1,2 and Akt phosphorylation [6]: effective | Decrease in viability [7]: 0% | IC50 [8]: 8 µM | Decrease in viability ([8]; [BP1001] 0-12 μM): 80% | IC50 [9]: 4 µM | Decrease in viability ([9]; [BP1001] 0-6 μM): 100% | IC50 [10]: 8 µM | Decrease in viability ([10]; [BP1001] 0-10 μM): 70% | Mean survival duration ([11]; 5 mg/kg/dose i.v. twice weekly): 20.8 ± 4.7 days | Mean survival duration ([11]; 10 mg/kg/dose i.v. twice weekly): 22.2 ± 8.7 days | Mean survival duration [11, 14]: 44.2 ± 8.5 days | mice surviving to 48 days (end of study) [11, 14]: 80% | WBC counts at two weeks post-injection, persisting at six weeks [12, 15]: Reduction | morbidity or mortality [12, 15]: No signs of morbidity or mortality | drug-related lesions in examined organs ([12]; multiple i.v. 15-25 mg/kg): no drug-related lesions | effect of pretreatment on cytarabine cytotoxicity [13]: enhances cytarabine cytotoxicity
